Patent US6444850B1, “Fungicidial compounds having a fluorovinyloxphyenyl moiety and process for the preparation thereof” (priority 1997, dated 2002)

Tests used:
[1] = test system: Erysiphae graminis; assay: Fungicidal activity against barley powdery mildew (BPM) disease; type: in vivo; conditions: for C. V. (%), Fungicidal activities against TLB at 10 ppm: Table 9 (Test Example 6); for C. V. (%) BPM: 50 ppm, control value, barley powdery mildew
Description: Erysiphae graminis was subcultured on a wheat plant in a laboratory. 15 g of barley seeds was sowed in a pot (diameter 6.5 cm) and cultured in a greenhouse for 7 days to obtain a barley plant having only a primary leaf. The barley plant was inoculated with spores by shaking thereover another plant infected by BPM. The inoculated barley plant was cultured in an incubator maintained at a temperature of 22 to 24° C. and a relative humidity of 50% for 7 days to induce BPM. L.A. on the leaf was measured to calculate an C.V.

[2] = test system: Botrytis cinerae; assay: Fungicidal activity against cucumber gray mold rot (CGM) disease; type: in vivo; conditions: 50 ppm, control value
Description: Botrytis cinerae, which was isolated from cucumber infected thereby, was inoculated on a PDA agar medium and cultured under a 12L/12D cycle at 25° C. for 15 days to form spore. The spores were scraped, filtered through a gauze and then suspended in potato dextrose liquid medium at a concentration of 1×10^6 spore/ml. The spore suspension was sprayed on a cucumber plant having one leaf. The cucumber plant was held in a humidified room at 20° C. for 3 days. L.A. on a leaf was measured to calculate an C.V.

[3] = test system: Phytophthora infestans; type: in vivo; conditions: 50 ppm; control value, tomato late blight
[4] = test system: Rhizoctonia solani AG-1; assay: Fungicidal activity against rice sheath blight (RSB) disease; conditions: 50 ppm, control value
[5] = test system: Pyricularia oryzae Carvara KA301; type: in vivo; conditions: for C. V. (%) RCB: 50 ppm, control value, rice blast; for C. V. (%) Fungicidal Activities against RCB at 10 ppm / C. V. (%) Fungicidal Activities against RCB at 10 ppm (TABLE 6): sprayed on Nakdong rice plant, control value from lesion area
[6] = test system: Puccinia recondita; assay: Fungicidal activity against wheat leaf rust (WLR) disease; type: in vivo; conditions: for C. V. (%) WLR: 50 ppm, control value, wheat leaf rust; for C. V. (%), Fungicidal Activities against WLB at 10 ppm: Table 8 (Test Example 5)

Row | SMILES | C. V. (%), Fungicidal activities against TLB at 10 ppm [1] | C. V. (%) BPM [1] | C. V. (%) CGM [2] | C. V. (%) TLB [3] | C. V. (%) RSB [4] | C. V. (%) RCB [5] | C. V. (%) WLR [6] | C. V. (%) Fungicidal Activities against RCB at 10 ppm [5] | C. V. (%) Fungicidal Activities against RCB at 10 ppm (TABLE 6) [5] | C. V. (%), Fungicidal Activities against WLB at 10 ppm [6]
1 | CON=C(C(=O)OC)c1ccccc1COc1cccc(OC(F)=C(c2ccccc2)C(F)(F)F)c1 [Compound 47] | 98% | 98% | 26% | 64% | 90% | 96% | 86% | – | – | –
2 | COC=C(C(=O)OC)c1ccccc1COc1cccc(OC(F)=Cc2ccccc2C)c1 [Compound 5] | 94% | 99% | 0% | 50% | 95% | 95% | 100% | 94% | 94% | 95%
3 | COC=C(C(=O)OC)c1ccccc1COc1cccc(OC(F)=C(c2cccc(F)c2)C(F)(F)F)c1 [Compound 92] | 99% | 100% | 16% | 81% | 55% | 93% | 100% | – | – | 100%
4 | COC=C(C(=O)OC)c1ccccc1COc1cccc(OC(F)=Cc2ccc(C)cc2)c1 [Compound 10] | 97% | 95% | 0% | 50% | 92% | 97% | 100% | 95% | 95% | 96%
5 | COC=C(C(=O)OC)c1ccccc1COc1cccc(OC(F)=C(c2ccc(C)cc2)C(F)(F)F)c1 [Compound 53] | 96% | 100% | 55% | 0% | 50% | 100% | 100% | – | – | 99%
6 | CNC(=O)/C(=C/OC)c1ccccc1COc1cccc(OC(F)=C(c2cc(C)cc(C)c2)C(F)(F)F)c1 [Compound 68] | – | 0% | 0% | 22% | 0% | 0% | 56% | – | – | –
7 | COC(=O)C(=CSC)c1ccccc1COc1cccc(OC(F)=Cc2cccc(OC)c2)c1 [Compound 28] | – | 97% | 21% | 73% | 70% | 93% | 91% | – | – | –
8 | CNC(=O)C(=COC)c1ccccc1COc1cccc(OC(F)=C(c2ccc(Cl)cc2)C(F)(F)F)c1 [Compound 89] | – | 0% | 22% | 33% | 25% | 0% | 33% | – | – | –
9 | CNC(=O)C(=COC)c1ccccc1COc1cccc(OC(F)=C(c2ccc(Br)cc2)C(F)(F)F)c1 [Compound 101] | – | 0% | 21% | 3% | 10% | 0% | 73% | – | – | –
10 | CNC(=O)C(=COC)c1ccccc1COc1cccc(OC(F)=C(c2ccc(F)cc2)C(F)(F)F)c1 [Compound 97] | – | 33% | 11% | 22% | 10% | 0% | 83% | – | – | –
11 | CNC(=O)C(=COC)c1ccccc1COc1cccc(OC(F)=Cc2ccc(C)cc2)c1 [Compound 11] | – | 25% | 15% | 20% | 5% | 16% | 43% | – | – | –
12 | CCc1ccc(C(=C(F)Oc2cccc(OCc3ccccc3C(=NOC)C(=O)NC)c2)C(F)(F)F)cc1 [Compound 61] | 100% | 100% | 5% | 64% | 50% | 100% | 100% | 96% | 96% | 100%
